{
  "source": "patent US7645745B2",
  "about": "“Antiviral nucleosides” (priority 2006, dated 2010)",
  "key": {"[1]": {"assay": "Caco2 protocol: transport through Caco-2 cell monolayers (Papp)", "assay_type": "in vitro ADME", "conditions": "human", "procedure": "(§1) To further evaluate potential behavior in human subjects, the transport through Caco-2 cells was evaluated for the putative prodrugs.\n(§2) Powders of Krebs-Henseleit buffer, calcium chloride dihydrate, and sodium bicarbonate were purchased from Sigma (St. Louis, Mo.). Caco-2 cells (Passage˜100) were obtained from Roche Basel. Dulbecco's Modified Eagle's Medium (DMEM)/high medium, 4-(2-hydroxyethyl)-1-piperazineethane-sulfonic acid (HEPES), and bovine serum were obtained from JRH Bioscience (Lenexa, Kans.). MEM nonessential amino acids, L-glutamine, penicillin, and streptomycin were obtained from GIBCO Labs, Life Tech. LLC (Grand Island, N.Y.). Snapwell cell culture inserts (6.5 mm diameter, 1.12 cm^2, 0.4 μm pore size) were obtained from Costar (Cambridge, Mass.).\n(§3) Culture media consisted of DMEM/high medium supplemented with 5% bovine serum, 25 mM HEPES, 1% MEM non-essential amino acids, 1% L-glutamine, 100 U/mL penicillin, and 100 μg/mL streptomycin. Cultures were passaged every week at a split ratio of 1-3. For the permeability studies, Caco-2 cells at passage number 110-120 were plated at a density of 400,000 cells/cm^2 on Transwell polycarbonate filters in Snapwell inserts and allowed to culture for 7 days prior to use.\n(§4) Krebs-Henseleit bicarbonate buffer containing 10 mM glucose and 2.5 mM CaCl2 adjusted to pH 6.5 and 7.4 were prepared per packet instructions. Powder salts were quantitatively dissolved in about 90% of required volume with Millipore water. Calcium chloride dihydrate and sodium bicarbonate were added before pH adjustment with 1N HCl or 1N NaOH. Additional Millipore water was added to bring the solution to final volume. The solution was sterilized by filtration using membrane with a porosity of 0.22 microns and stored in the refrigerator ([…]) until use.\n(§5) Snapwells inserts, containing caco-2 monolayers were rinsed in 37° C. equilibrated Krebs-Henseleit pH 7.4 buffer.\n(§6) The cell insert was utilized as the diffusion chamber. The pH of the Krebs-Henseleit buffer in the apical and basolateral chambers was 6.5 and 7.4, respectively, and the initial concentration of substrate in apical side was 100 μM. […] The experiments were initiated when the cell inserts with 100 μM compounds in pH 6.5 Krebs-Henseleit buffer were transferred into a new plate with pre-equilibrated buffer in basolateral chamber. Samples from donor side at 0 min, and both donor and receiver sides at 30 min were collected for analysis.\n(§7) Lucifer Yellow was used to assess the performance of the diffusion system. […] After 60 min of incubation, 250 μL was removed from the basal chamber and assayed.\n(§8) The Papp was calculated using the following formula:\n(§9) [formula] Where V is the volume (cm^3) of the receiver solution, A is the surface area (cm^2) of the Snapwell insert, Co is the initial concentration (nM), and dC/dt is the change in concentration in the receiver chamber over time, i.e., the slope (nM/min) of the concentration in the receiver chamber vs. time. Concentrations at each sampling time point were corrected to account for the aliquots removed or transferring of donor inserts to new plates depending on the experiment."}, "HCV": {"system": "HCV", "conditions": "monotherapy; cited from earlier work"}, "Caco-2 cells": {"system": "Caco-2 cells", "assay": "Caco2 protocol: transport through Caco-2 cell monolayers (Papp)", "assay_type": "in vitro ADME", "conditions": "Caco-2 cultured 7 days; apical pH 6.5, basolateral pH 7.4; 100 μM apical; 30 min", "procedure": "as §1, §2, §3, §4, §5, §6, §7, §8, §9"}, "[2]": {"assay": "Determination of pharmacokinetic parameters in rats (oral gavage, plasma LC/MS/MS)", "assay_type": "in vivo, rat", "conditions": "AUC(cyt) of parent cytidine nucleoside in plasma, dose equivalent to 10 mg/kg, male Hanover-Wistar rats", "procedure": "Determination of Pharmacokinetic Parameters in Rats Intact male IGS Wistar Han Rats Crl:WI(GLx/BRL/Han)IGS BR (Hanover-Wistar) rats weighing 200-250 g were used. Groups of three rats were used for each dose level of an experimental compound. Animals were allowed normal access to chow and water throughout the experiment. The test substance was formulated as an aqueous suspension containing Captex 355EP, Capmul MCM, EtOH, and propylene glycol (30:20:20:30) at a dose equivalent to 10 mg/kg of the I-5 and was administered orally by gavage. A blood sample (0.3 mL) was collected from the treated rats at, 0.25, 0.5, 1, 3, 5, and 8 h from a jugular cannula and at 24 h by cardiac puncture. Potassium oxalate/NaF were added to the samples which were stored on ice during sampling procedure. The samples were spun in a refrigerated centrifuge at […] as soon as possible and the plasma samples were stored in a −80° C. freezer until analysis. Aliquots of plasma (0.05 mL) were mixed with 0.1 mL of acetonitrile. Internal standard (0.05 mL in water) and 0.02 mL blank solvent were added. […] Sample Analysis—Prodrugs were analyzed using high-performance liquid chromatography with tandem mass-spectrometry (HPLC/MS/MS). […]"}},
  "note": "Like-named read-outs stand apart in the source and are kept apart here.",
  "data": [
    {"smiles": "CC(C)C(N)C(=O)O[C@@H]1[C@@H](CO)O[C@@H](n2ccc(N)nc2=O)[C@]1(C)O", "note": "(stereo partly drawn) [I-5, reference compound]", "values": [
      {"measurement": "Papp A→B at 30 min, 100 μM", "setting": "[1]; Caco-2 cultured 7 days, apical pH 6.5, basolateral pH 7.4, 100 μM apical, 30 min, read-out: Caco2 (7 day)", "result": 0.12, "unit": "×10⁻⁶ cm/s"}
    ]},
    {"smiles": "CCC(=O)OC[C@H]1O[C@@H](n2ccc(N)nc2=O)[C@](C)(O)[C@@H]1OC(=O)CC.Cl", "note": "[I-1, Propionic Acid (2R,3R,4R,5R)-5-(4-amino-2-oxo-2H-pyrimidin-1-yl)-4-hydroxy-4-methyl-3-propionyloxy-tetrahydro-furan-2-ylmethyl ester; Hydrochloride Salt]", "values": [
      {"measurement": "melting point", "result": "164.5 to 167", "unit": "°C"},
      {"measurement": "Papp A→B at 30 min, 100 μM", "setting": "[1]; Caco-2", "result": 0.11, "unit": "×10⁻⁶ cm/s"}
    ]},
    {"smiles": "NC(=O)c1ncn([C@@H]2O[C@H](CO)[C@@H](O)[C@H]2O)n1", "note": "[ribavirin, 1-((2R,3R,4S,5R)-3,4-Dihydroxy-5-hydroxymethyl-tetrahydro-furan-2-yl)-1H-[1,2,4]triazole-3-carboxylic acid amide]", "values": [
      {"measurement": "patients with serum amino transferase levels reduced to normal", "setting": "HCV", "result": 40, "unit": "%"}
    ]},
    {"smiles": "C[C@@]1(O)[C@H](O)[C@@H](CO)O[C@H]1n1ccc(N)nc1=O", "note": "[I-4, 4-amino-1-((2R,3R,4R,5R)-3,4-dihydroxy-5-hydroxymethyl-3-methyl-tetrahydro-furan-2-yl)-1H-pyrimidin-2-one, reference compound]", "values": [
      {"measurement": "Papp A→B at 30 min, 100 μM", "setting": "[1]; Caco-2", "result": 0.76, "unit": "×10⁻⁶ cm/s"}
    ]},
    {"smiles": "CC(C)C(=O)OC[C@H]1O[C@@H](n2ccc(N)nc2=O)[C@](C)(O)[C@@H]1OC(=O)C(C)C.Cl", "note": "[I-2, Iso-butyric Acid (2R,3R,4R,5R)-5-(4-amino-2-oxo-2H-pyrimidin-1-yl)-4-hydroxy-3-isobutyryloxy-4-methyl-tetrahydro-furan-2-ylmethyl ester; Hydrochloride Salt]", "values": [
      {"measurement": "Caco2 (7 day)", "setting": "Caco-2 cells", "result": 1.06, "unit": "cm/sec × 10^−6"},
      {"measurement": "Rat AUC", "setting": "[2]", "result": "5600 ± 300", "unit": "ng·h/mL"}
    ]},
    {"smiles": "CCCCC(=O)OC[C@H]1O[C@@H](n2ccc(N)nc2=O)[C@](C)(O)[C@@H]1OC(=O)CCCC.Cl", "note": "[I-3, Pentanoic Acid (2R,3R,4R,5R)-5-(4-amino-2-oxo-2H-pyrimidin-1-yl)-4-hydroxy-4-methyl-3-pentanoyloxy-tetrahydro-furan-2-ylmethyl ester; Hydrochloride Salt]", "values": [
      {"measurement": "melting point", "result": "158.2 to 159.2", "unit": "°C"},
      {"measurement": "Papp A→B at 30 min, 100 μM", "setting": "[1]; Caco-2", "result": 4.21, "unit": "×10⁻⁶ cm/s"}
    ]}
  ]
}
